In the NIST ThermoML archive (doi:10.1021/acs.jced.5b00152):
Numbers after ± are expanded uncertainties.

Conditions: Liquid; for viscosity: Capillary tube (Ostwald / Ubbelohde) method; for mass density: Vibrating tube method

For `CCCCCC` [hexane], the viscosity (293.22 K, 1999 kPa) was 0.3196 ± 0.015 mPa·s, the mass density (293.22 K, 1999 kPa) was 661.4 ± 5.2 kg/m3 and the viscosity (293.22 K, 3994 kPa) was 0.3287 ± 0.016 mPa·s. It also gave a mass density (293.22 K, 3994 kPa) of 663.53 ± 5.2 kg/m3, a viscosity (293.22 K, 5999 kPa) of 0.339 ± 0.016 mPa·s and a mass density (293.22 K, 5999 kPa) of 665.43 ± 5.2 kg/m3. For the same compound, the viscosity (293.22 K, 8007 kPa) was 0.3483 ± 0.017 mPa·s, the mass density (293.22 K, 8007 kPa) was 667.57 ± 5.3 kg/m3 and the viscosity (293.22 K, 22004 kPa) was 0.4135 ± 0.02 mPa·s. For the same compound, the mass density (293.22 K, 22004 kPa) was 680.38 ± 5.5 kg/m3, the viscosity (293.22 K, 28004 kPa) was 0.4427 ± 0.021 mPa·s and the mass density (293.22 K, 28004 kPa) was 685.01 ± 5.5 kg/m3. For the same compound, the viscosity (293.23 K, 10003 kPa) was 0.3576 ± 0.017 mPa·s, the mass density (293.23 K, 10003 kPa) was 669.41 ± 5.3 kg/m3 and the viscosity (293.23 K, 13000 kPa) was 0.3713 ± 0.018 mPa·s. It also gave a mass density (293.23 K, 13000 kPa) of 672.26 ± 5.3 kg/m3, a viscosity (293.23 K, 16006 kPa) of 0.3851 ± 0.018 mPa·s and a mass density (293.23 K, 16006 kPa) of 675.2 ± 5.4 kg/m3. The viscosity (293.23 K, 19000 kPa) was 0.399 ± 0.019 mPa·s, the mass density (293.23 K, 19000 kPa) was 677.83 ± 5.4 kg/m3 and the viscosity (293.23 K, 25002 kPa) was 0.428 ± 0.02 mPa·s. The mass density (293.23 K, 25002 kPa) was 682.87 ± 5.5 kg/m3, the viscosity (293.23 K, 30001 kPa) was 0.4521 ± 0.022 mPa·s and the mass density (293.23 K, 30001 kPa) was 686.72 ± 5.5 kg/m3. For the same compound, the viscosity (313.1 K, 2005 kPa) was 0.2614 ± 0.012 mPa·s, the mass density (313.1 K, 2005 kPa) was 643.6 ± 5 kg/m3 and the viscosity (313.1 K, 3997 kPa) was 0.2702 ± 0.013 mPa·s. The mass density (313.1 K, 3997 kPa) was 645.97 ± 5 kg/m3, the viscosity (313.1 K, 5999 kPa) was 0.2774 ± 0.013 mPa·s and the mass density (313.1 K, 5999 kPa) was 648.24 ± 5.1 kg/m3. For the same compound, the viscosity (313.1 K, 8000 kPa) was 0.2853 ± 0.014 mPa·s, the mass density (313.1 K, 8000 kPa) was 650.44 ± 5.1 kg/m3 and the viscosity (313.1 K, 9999 kPa) was 0.2934 ± 0.014 mPa·s. It also gave a mass density (313.1 K, 9999 kPa) of 652.57 ± 5.1 kg/m3, a viscosity (313.1 K, 12997 kPa) of 0.305 ± 0.015 mPa·s and a mass density (313.1 K, 12997 kPa) of 655.73 ± 5.2 kg/m3. For the same compound, the viscosity (313.1 K, 15999 kPa) was 0.3165 ± 0.015 mPa·s, the mass density (313.1 K, 15999 kPa) was 659 ± 5.2 kg/m3 and the viscosity (313.1 K, 18003 kPa) was 0.3243 ± 0.015 mPa·s. The mass density (313.1 K, 18003 kPa) was 661.04 ± 5.3 kg/m3, the viscosity (313.1 K, 21999 kPa) was 0.3399 ± 0.016 mPa·s and the mass density (313.1 K, 21999 kPa) was 664.77 ± 5.3 kg/m3. For the same compound, the viscosity (313.1 K, 24998 kPa) was 0.3504 ± 0.017 mPa·s, the mass density (313.1 K, 24998 kPa) was 667.58 ± 5.4 kg/m3 and the viscosity (313.1 K, 28001 kPa) was 0.3631 ± 0.017 mPa·s. It also gave a mass density (313.1 K, 28001 kPa) of 670.32 ± 5.4 kg/m3, a viscosity (313.1 K, 30004 kPa) of 0.37 ± 0.018 mPa·s and a mass density (313.1 K, 30004 kPa) of 672.03 ± 5.4 kg/m3. The viscosity (333 K, 2004 kPa) was 0.2192 ± 0.01 mPa·s, the mass density (333 K, 2004 kPa) was 624.85 ± 4.8 kg/m3 and the viscosity (333 K, 4002 kPa) was 0.226 ± 0.011 mPa·s. The mass density (333 K, 4002 kPa) was 627.59 ± 4.9 kg/m3, the viscosity (333 K, 6003 kPa) was 0.2328 ± 0.011 mPa·s and the mass density (333 K, 6003 kPa) was 630.29 ± 4.9 kg/m3. The viscosity (333 K, 8005 kPa) was 0.2396 ± 0.011 mPa·s, the mass density (333 K, 8005 kPa) was 632.82 ± 5 kg/m3 and the viscosity (333 K, 10008 kPa) was 0.2467 ± 0.012 mPa·s. The mass density (333 K, 10008 kPa) was 635.78 ± 5 kg/m3, the viscosity (333 K, 12998 kPa) was 0.2565 ± 0.012 mPa·s and the mass density (333 K, 12998 kPa) was 639.36 ± 5 kg/m3. For the same compound, the viscosity (333 K, 16002 kPa) was 0.2667 ± 0.013 mPa·s, the mass density (333 K, 16002 kPa) was 642.74 ± 5.1 kg/m3 and the viscosity (333 K, 19000 kPa) was 0.2766 ± 0.013 mPa·s. It also gave a mass density (333 K, 19000 kPa) of 646.04 ± 5.1 kg/m3, a viscosity (333 K, 21993 kPa) of 0.2863 ± 0.014 mPa·s and a mass density (333 K, 21993 kPa) of 649.32 ± 5.2 kg/m3. For the same compound, the viscosity (333 K, 25001 kPa) was 0.296 ± 0.014 mPa·s, the mass density (333 K, 25001 kPa) was 652.41 ± 5.2 kg/m3 and the viscosity (333 K, 28000 kPa) was 0.3058 ± 0.015 mPa·s. For the same compound, the mass density (333 K, 28000 kPa) was 655.31 ± 5.3 kg/m3, the viscosity (333 K, 30005 kPa) was 0.3128 ± 0.015 mPa·s and the mass density (333 K, 30005 kPa) was 657.29 ± 5.3 kg/m3. For the same compound, the viscosity (353.14 K, 4001 kPa) was 0.1911 ± 0.0092 mPa·s, the mass density (353.14 K, 4001 kPa) was 608.43 ± 4.7 kg/m3 and the viscosity (353.14 K, 8003 kPa) was 0.203 ± 0.0097 mPa·s. It also gave a mass density (353.14 K, 8003 kPa) of 614.97 ± 4.8 kg/m3, a viscosity (353.14 K, 15997 kPa) of 0.2264 ± 0.011 mPa·s and a mass density (353.14 K, 15997 kPa) of 625.92 ± 4.9 kg/m3. It also gave a viscosity (353.14 K, 21998 kPa) of 0.2438 ± 0.012 mPa·s, a mass density (353.14 K, 21998 kPa) of 633.46 ± 5 kg/m3 and a viscosity (353.15 K, 2003 kPa) of 0.1848 ± 0.0089 mPa·s. For the same compound, the mass density (353.15 K, 2003 kPa) was 605.15 ± 4.7 kg/m3, the viscosity (353.15 K, 5997 kPa) was 0.197 ± 0.0094 mPa·s and the mass density (353.15 K, 5997 kPa) was 611.57 ± 4.8 kg/m3. For the same compound, the viscosity (353.15 K, 10009 kPa) was 0.2091 ± 0.01 mPa·s, the mass density (353.15 K, 10009 kPa) was 618 ± 4.8 kg/m3 and the viscosity (353.15 K, 13000 kPa) was 0.2179 ± 0.01 mPa·s. It also gave a mass density (353.15 K, 13000 kPa) of 622.08 ± 4.9 kg/m3, a viscosity (353.15 K, 19000 kPa) of 0.2352 ± 0.011 mPa·s and a mass density (353.15 K, 19000 kPa) of 629.87 ± 5 kg/m3.

`CCCCCO` [pentan-1-ol] gave a viscosity (298.15 K, 2003 kPa) of 3.593 ± 0.083 mPa·s, a mass density (298.15 K, 2003 kPa) of 811.93 ± 1.4 kg/m3 and a viscosity (298.15 K, 3999 kPa) of 3.661 ± 0.085 mPa·s. For the same compound, the mass density (298.15 K, 3999 kPa) was 813.3 ± 1.4 kg/m3, the viscosity (298.15 K, 6003 kPa) was 3.731 ± 0.086 mPa·s and the mass density (298.15 K, 6003 kPa) was 814.64 ± 1.4 kg/m3. It also gave a viscosity (298.15 K, 8005 kPa) of 3.799 ± 0.088 mPa·s, a mass density (298.15 K, 8005 kPa) of 815.96 ± 1.4 kg/m3 and a viscosity (298.15 K, 10001 kPa) of 3.867 ± 0.089 mPa·s. The mass density (298.15 K, 10001 kPa) was 817.26 ± 1.4 kg/m3, the viscosity (298.15 K, 13000 kPa) was 3.972 ± 0.092 mPa·s and the mass density (298.15 K, 13000 kPa) was 819.15 ± 1.4 kg/m3. It also gave a viscosity (298.15 K, 16004 kPa) of 4.08 ± 0.094 mPa·s, a mass density (298.15 K, 16004 kPa) of 821 ± 1.4 kg/m3 and a viscosity (298.15 K, 19006 kPa) of 4.19 ± 0.097 mPa·s. The mass density (298.15 K, 19006 kPa) was 822.8 ± 1.4 kg/m3, the viscosity (298.15 K, 22000 kPa) was 4.301 ± 0.099 mPa·s and the mass density (298.15 K, 22000 kPa) was 824.56 ± 1.4 kg/m3. The viscosity (298.15 K, 24998 kPa) was 4.41 ± 0.1 mPa·s, the mass density (298.15 K, 24998 kPa) was 826.27 ± 1.4 kg/m3 and the viscosity (323.15 K, 1999 kPa) was 1.835 ± 0.043 mPa·s. The mass density (323.15 K, 1999 kPa) was 794.19 ± 1.4 kg/m3, the viscosity (323.15 K, 4001 kPa) was 1.868 ± 0.043 mPa·s and the mass density (323.15 K, 4001 kPa) was 795.77 ± 1.4 kg/m3. It also gave a viscosity (323.15 K, 6001 kPa) of 1.903 ± 0.044 mPa·s, a mass density (323.15 K, 6001 kPa) of 797.32 ± 1.4 kg/m3 and a viscosity (323.15 K, 8000 kPa) of 1.937 ± 0.045 mPa·s. It also gave a mass density (323.15 K, 8000 kPa) of 798.83 ± 1.4 kg/m3, a viscosity (323.15 K, 9998 kPa) of 1.972 ± 0.046 mPa·s and a mass density (323.15 K, 9998 kPa) of 800.31 ± 1.4 kg/m3. It also gave a viscosity (323.15 K, 12999 kPa) of 2.025 ± 0.047 mPa·s, a mass density (323.15 K, 12999 kPa) of 802.47 ± 1.4 kg/m3 and a viscosity (323.15 K, 16001 kPa) of 2.078 ± 0.048 mPa·s. The mass density (323.15 K, 16001 kPa) was 804.56 ± 1.4 kg/m3, the viscosity (323.15 K, 19002 kPa) was 2.134 ± 0.049 mPa·s and the mass density (323.15 K, 19002 kPa) was 806.59 ± 1.4 kg/m3. It also gave a viscosity (323.15 K, 22001 kPa) of 2.19 ± 0.051 mPa·s, a mass density (323.15 K, 22001 kPa) of 808.56 ± 1.4 kg/m3 and a viscosity (323.15 K, 25002 kPa) of 2.245 ± 0.052 mPa·s. It also gave a mass density (323.15 K, 25002 kPa) of 810.48 ± 1.4 kg/m3.
